Source: patent US8227478B2, “JNK modulators” (Roche Palo Alto LLC, priority 2008, dated 2012)
Where “and” joins values, the source holds several entries; their conditions need not be identical. Identical values can stand only once.

Assays:
Human JNK1α1 = Human JNK1α1 (Homo sapiens, UniProt P45983); assay: JNK assay in vitro, phosphorylation of GST-ATF2 (19-96) with [γ-33P] ATP; type: biochemical; conditions: Human JNK1α1, 2 nM enzyme, 1 μM ATF2, 6 μM ATP (Km); read-out: JNK1 - IC50
Protocol: (§1) JNK activity was measured by phosphorylation of GST-ATF2 (19-96) with [γ-^33P] ATP. The enzyme reaction was conducted at Km concentrations of ATP and the substrate at final volume of 40 μl in buffer containing 25 mM HEPES, pH 7.5, 2 mM dithiothreitol, 150 mM NaCl, 20 mM MgCl2, 0.001% Tween® 20, 0.1% BSA and 10% DMSO. Human JNK2α2 assay contains 1 nM enzyme, 1 μM ATF2, 8 μM ATP with 1 uCi [γ-^33P] ATP. Human JNK1α1 assay contains 2 nM enzyme, 1 μM ATF2, 6 μM ATP with 1 μCi [γ-^33P] ATP. Human JNK3 (Upstate Biotech #14-501M) assay contains 2 nM enzyme, 1 μM ATF2, 4 μM ATP with 1 μCi [γ-^33P] ATP. The enzyme assay was carried out in the presence or absence of several compound concentrations. JNK and compound were pre-incubated for 10 min., followed by initiation of the enzymatic reaction by adding ATP and the substrate. The reaction mixture was incubated at 30° C. for 30 min. At the end of incubation, the reaction was terminated by transferring 25 μl of the reaction mixture to 150 μl of 10% glutathione Sepharose® slurry (Amersham #27-4574-01) containing 135 mM EDTA. The reaction product was captured on the affinity resin, and washed on a filtration plate (Millipore, MABVNOB50) with phosphate buffered saline for six times to remove free radionucleotide. The incorporation of ^33P into ATF2 was quantified on a microplate scintillation counter (Packard Topcount). Compound inhibition potency on JNK was measured by IC50 value generated from ten concentration inhibition curves fitted into the 3-parameter model: % inhibition=Maximum/(1+(IC50/[Inhibitor])^slope). Data were analyzed on Microsoft Excel for parameter estimation.

Human JNK2α2 = Human JNK2α2 (Homo sapiens, UniProt P45984); assay: as above; type: biochemical; conditions: Human JNK2α2, 1 nM enzyme, 1 μM ATF2, 8 μM ATP (Km); read-out: JNK2 - IC50
Sequence of Human JNK2α2 (P45984 whole entry): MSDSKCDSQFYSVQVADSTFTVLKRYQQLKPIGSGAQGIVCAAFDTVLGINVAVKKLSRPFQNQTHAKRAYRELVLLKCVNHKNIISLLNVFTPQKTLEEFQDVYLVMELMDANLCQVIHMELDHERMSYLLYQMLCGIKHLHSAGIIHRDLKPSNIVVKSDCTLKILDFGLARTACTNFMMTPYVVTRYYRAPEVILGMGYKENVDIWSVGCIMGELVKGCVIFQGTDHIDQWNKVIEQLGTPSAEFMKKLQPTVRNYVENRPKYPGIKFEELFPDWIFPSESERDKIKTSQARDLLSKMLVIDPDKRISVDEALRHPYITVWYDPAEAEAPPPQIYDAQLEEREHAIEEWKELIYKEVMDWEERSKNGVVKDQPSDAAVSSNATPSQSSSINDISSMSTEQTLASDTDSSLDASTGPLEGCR
Protocol: as §1

phospho-c-Jun = assay: Phospho-c-Jun translocation assay in TNFα-activated SW1353 cells; type: cell-based; conditions: Homo sapiens, TNFα 1 ng/ml for 20 min, 30 min compound pre-incubation
Text: Inflammation is regulated in part by the action of c-Jun on other genes in the inflammatory pathway. Thus, inhibition of phosphorylated c-Jun translocation to the nucleus provides an indication of the anti-inflammatory activity of a compound. SW1353 cells were purchased from the American Tissue Culture Collection and maintained in growth media containing DMEM medium (Invitrogen) with 10% fetal bovine serum (Invitrogen), ascorbic acid (Sigma), and penicillin/streptomycin/[…] (Invitrogen) under culture conditions (at 37° C. with 5% CO2). Cells were plated at a density of 8,000 cells/well in 100 μl growth medium 24 h prior to the compound treatment. Immediately before the compound treatment, growth media was replaced with 90 μl of fresh media. Compound stock at 10 mM was first diluted in compound vehicle (DMSO) to 3 mM, then diluted in serum-free medium and added to each well as a 10× concentrated solution in a volume of 10 μl, mixed, and pre-incubated with cells for 30 min at 37° C. in 5% CO2. Compound vehicle (DMSO) was maintained at a final concentration of 1% for all samples. After 30 min incubation, the cells were activated with TNFα (1 ng/ml, Roche Biochem) for 20 min. Cells were then fixed, permeabilized, and stained with anti-phospho-c-Jun antibody (Santa Cruz), followed by Alexa Fluor 488 labeled secondary antibody and Hoechet 33342 dye (Invitrogen) per manufacturer's instructions. The signals of phospho-c-Jun were measured for 400 cells per well by the ArrayScan HCS system (Cellomic). The IC50 values were calculated as the concentration of the compound at which the phospho-c-Jun activity was inhibited to 50% of the control value using the 4-parameter fitting function in the ActivityBase program (IDBS).

Sequence of Human JNK1α1 (P45983 1-384 isoform P45983-2): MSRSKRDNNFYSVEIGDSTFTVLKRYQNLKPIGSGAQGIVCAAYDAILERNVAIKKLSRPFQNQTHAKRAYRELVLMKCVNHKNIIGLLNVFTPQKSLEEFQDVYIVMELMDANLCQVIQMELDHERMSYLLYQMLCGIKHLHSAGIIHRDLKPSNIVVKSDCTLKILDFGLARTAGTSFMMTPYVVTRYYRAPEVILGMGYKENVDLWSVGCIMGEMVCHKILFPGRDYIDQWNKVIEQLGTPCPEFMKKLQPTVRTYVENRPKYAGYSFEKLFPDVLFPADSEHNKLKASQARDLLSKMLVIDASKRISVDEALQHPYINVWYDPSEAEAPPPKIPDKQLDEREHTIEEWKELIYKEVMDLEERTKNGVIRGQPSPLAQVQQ

Cc1cscc1-c1cccc2c1nnn2-c1ccnc(N[C@H]2CC[C@H](C(=O)N3CCC(O)CC3)CC2)n1 [Compound 1]
IC50 (Human JNK1α1): 2.8 nM
IC50 (Human JNK2α2): 12.7 nM
IC50 (phospho-c-Jun): 703 nM
melting point: 246 to 247 °C

Cc1ccccc1-c1cccc2c1nnn2-c1ccnc(N[C@H]2CC[C@H](C(=O)N3CCC(O)CC3)CC2)n1 [Compound 2, (4-Hydroxy-piperidin-1-yl)-{4-[4-(4-o-tolyl-benzotriazol-1-yl)-pyrimidin-2-ylamino]-cyclohexyl}-methanone]
IC50 (Human JNK1α1): 5.8 nM
IC50 (Human JNK2α2): 19.9 nM
IC50 (phospho-c-Jun): 678 nM
melting point: 224 to 226 °C and 224.6 to 225.9 °C

Cc1ccncc1-c1cccc2c1nnn2-c1ccnc(N[C@H]2CC[C@H](C(=O)N3CCC(O)CC3)CC2)n1 [Compound 3, (4-Hydroxy-piperidin-1-yl)-(4-{4-[4-(4-methylpyirin-3-yl)-benzotriazol-1-yl]-pyrimidin-2-ylamino}-cyclohexyl)-methanone]
IC50 (Human JNK1α1): 27.5 nM
IC50 (Human JNK2α2): 90.4 nM
IC50 (phospho-c-Jun): 2820 nM
melting point: 194.3 to 218.2 °C

Cc1noc(C)c1-c1cccc2c1nnn2-c1ccnc(N[C@H]2CC[C@H](C(=O)N3CCC(O)CC3)CC2)n1 [Compound 4, (4-{4-[4-(3,5-Dimethylisoxazol-4-yl)-benzotriazol-1-yl]-pyrimidin-2-ylamino}-cyclohexyl)-(4-hydroxy-piperidin-1-yl)-methanone]
IC50 (Human JNK1α1): 43.2 nM
IC50 (Human JNK2α2): 105 nM
IC50 (phospho-c-Jun): 2580 nM
melting point: > 300 °C

Cc1cscc1-c1cccc2c1nnn2-c1ccnc(NC2CCN(S(C)(=O)=O)CC2)n1 [Compound 5, (1-Methanesulfonyl-piperidin-4-yl)-{4-[4-(4-methyl-thiophen-3-yl)-benzotriazol-1-yl]-pyrimidin-2-yl}-amine]
IC50 (Human JNK1α1): 3.6 nM
IC50 (Human JNK2α2): 17.8 nM
IC50 (phospho-c-Jun): 13900 nM

O=C([C@H]1CC[C@H](Nc2nccc(-n3nnc4c(-c5ccsc5)cccc43)n2)CC1)N1CCC(O)CC1 [Compound 6, (4-Hydroxy-piperidin-1-yl)-{4-[4-(4-thiophen-3-ylbenzotriazol-1-yl)-pyrimidin-2-ylamino]-cyclohexyl}-methanone]
IC50 (Human JNK1α1): 20.3 nM
IC50 (Human JNK2α2): 67.8 nM
IC50 (phospho-c-Jun): 3300 nM
melting point: 233 to 234 °C

Cc1cscc1-c1cccc2c1ccn2-c1ccnc(N[C@H]2CC[C@H](C(=O)N3CCC(O)CC3)CC2)n1 [Compound 7, (4-Hydroxy-piperidin-1-yl)-(4-{4-[4-(4-methyl-thiophen-3-yl)-indol-1-yl]-pyrimidin-2-ylamino}-cyclohexyl)-methanone]
IC50 (Human JNK1α1): 33.1 nM
IC50 (Human JNK2α2): 98.7 nM
IC50 (phospho-c-Jun): 8370 nM
melting point: 168 to 188 °C

O=C([C@H]1CC[C@H](Nc2nccc(-n3nnc4c(-c5ccncc5)cccc43)n2)CC1)N1CCC(O)CC1 [Compound 8]
IC50 (Human JNK1α1): 28.7 nM
IC50 (Human JNK2α2): 91.2 nM
IC50 (phospho-c-Jun): 5810 nM
melting point: 266 to 267 °C

O=C([C@H]1CC[C@H](Nc2nccc(-n3nnc4c(-c5ccoc5)cccc43)n2)CC1)N1CCC(O)CC1 [Compound 9, {4-[4-(4-Furan-3-yl-benzotriazol-1-yl)-pyrimidin-2-ylamino]-cyclohexyl}-(4-hydroxy-piperidin-1-yl)-methanone]
IC50 (Human JNK1α1): 39.7 nM
IC50 (Human JNK2α2): 130 nM
IC50 (phospho-c-Jun): ≥ 30000 nM
melting point: 243 to 244 °C

Cc1n[nH]cc1-c1cccc2c1nnn2-c1ccnc(NC2CCN(S(C)(=O)=O)CC2)n1 [Compound 10, (1-Methanesulfonyl-piperidin-4-yl)-{4-[4-(3-methyl-1H-pyrazol-4-yl)-benzotriazol-1-yl]-pyrimidin-2-yl}-amine]
IC50 (Human JNK1α1): 3 nM
IC50 (Human JNK2α2): 14 nM
IC50 (phospho-c-Jun): 2160 nM
melting point: 231 to 232 °C

Cc1n[nH]cc1-c1cccc2c1nnn2-c1ccnc(N[C@H]2CC[C@H](C(=O)N3CCC(O)CC3)CC2)n1 [Compound 11, (4-Hydroxy-piperidin-1-yl)-(4-{4-[4-(3-methyl-1H-pyrazol-4-yl)-benzotriazol-1-yl]-pyrimidin-2-ylamino}-cyclohexyl)-methanone]
IC50 (Human JNK1α1): 5.2 nM
IC50 (Human JNK2α2): 18.6 nM
IC50 (phospho-c-Jun): 434 nM

Cc1n[nH]cc1-c1cccc2c1ccn2-c1ccnc(N[C@H]2CC[C@H](C(=O)N3CCC(O)CC3)CC2)n1 [Compound 12, (4-Hydroxy-piperidin-1-yl)-(4-{4-[4-(3-methyl-1H-pyrazol-4-yl)-indol-1-yl]-pyrimidin-2-ylamino}-cyclohexyl)-methanone]
IC50 (Human JNK1α1): 31.7 nM
IC50 (Human JNK2α2): 121 nM
IC50 (phospho-c-Jun): 2590 nM
melting point: 215 to 220 °C

Cc1noc(C)c1-c1cccc2c1ccn2-c1ccnc(N[C@H]2CC[C@H](C(=O)N3CCC(O)CC3)CC2)n1 [Compound 13, (4-{4-[4-(3,5-Dimethyl-isoxazol-4-yl)-indol-1-yl]-pyrimidin-2-ylamino}-cyclohexyl)-(4-hydroxy-piperidin-1-yl)-methanone]
IC50 (Human JNK1α1): 48.4 nM
IC50 (Human JNK2α2): 225 nM

Cc1ccncc1-c1cccc2c1ccn2-c1ccnc(N[C@H]2CC[C@H](C(=O)N3CCC(O)CC3)CC2)n1 [Compound 14, (4-Hydroxy-piperidin-1-yl)-(4-{4-[4-(4-methyl-pyridin-3-yl)-indol-1-yl]-pyrimidin-2-ylamino}-cyclohexyl)-methanone]
IC50 (Human JNK1α1): 87.7 nM
IC50 (Human JNK2α2): 341 nM
melting point: 176 to 178 °C

Cc1ccccc1-c1cccc2c1ccn2-c1ccnc(N[C@H]2CC[C@H](C(=O)N3CCC(O)CC3)CC2)n1 [Compound 15, (4-Hydroxy-piperidin-1-yl)-{4-[4-(4-o-tolyl-indol-1-yl)-pyrimidin-2-ylamino]-cyclohexyl}-methanone]
IC50 (Human JNK1α1): 64.7 nM
IC50 (Human JNK2α2): 220 nM
melting point: 158 to 160 °C

O=C([C@H]1CC[C@H](Nc2nccc(-n3ccc4c(-c5ccncc5)cccc43)n2)CC1)N1CCC(O)CC1 [Compound 16, (4-Hydroxy-piperidin-1-yl)-{4-[4-(4-pyridin-4-yl-indol-1-yl)-pyrimidin-2-ylamino]-cyclohexyl}-methanone]
IC50 (Human JNK1α1): 44 nM
IC50 (Human JNK2α2): 175 nM
IC50 (phospho-c-Jun): 2520 nM
melting point: 258 to 259 °C

O=C([C@H]1CC[C@H](Nc2nccc(-n3ccc4c(-c5ccccc5)cccc43)n2)CC1)N1CCC(O)CC1 [Compound 17, (4-Hydroxy-piperidin-1-yl)-{4-[4-(4-phenyl-indol-1-yl)-pyrimidin-2-ylamino]-cyclohexyl}-methanone]
IC50 (Human JNK1α1): 262 nM
IC50 (Human JNK2α2): 856 nM
melting point: 190 to 191 °C

O=C([C@H]1CC[C@H](Nc2nccc(-n3ccc4c(-c5ccsc5)cccc43)n2)CC1)N1CCC(O)CC1 [Compound 18, (4-hydroxy-piperidin-1-yl)-{4-[4-(4-thiophen-3-yl-indol-1-yl)-pyrimidin-2-ylamino]-cyclohexyl}-methanone]
IC50 (Human JNK1α1): 47.9 nM
IC50 (Human JNK2α2): 189 nM
melting point: 171 to 172 °C
